Results reported in ChEMBL document CHEMBL5352439, “Design, synthesis, biological evaluation and molecular docking study of novel urea-based benzamide derivatives as potent poly(ADP-ribose) polymerase-1 (PARP-1) inhibitors” (Eur J Med Chem, 2022).

Legend:
MDA-MB-231 [1] = assay: Antiproliferative activity against human MDA-MB-231 cells assessed as inhibition of cell growth at 20 uM incubated for 48 hrs by MTT assay; format: functional
HCT-116 [2] = assay: Antiproliferative activity against human HCT-116 cells assessed as inhibition of cell growth at 20 uM incubated for 48 hrs by MTT assay; format: functional
HeLa [3] = assay: Antiproliferative activity against human HeLa cells assessed as inhibition of cell growth at 20 uM incubated for 48 hrs by MTT assay; format: functional
A549 [4] = assay: Antiproliferative activity against human A549 cells assessed as inhibition of cell growth at 20 uM incubated for 48 hrs by MTT assay; format: functional
A-375 [5] = assay: Antiproliferative activity against human A-375 cells assessed as inhibition of cell growth at 20 uM incubated for 48 hrs by MTT assay; format: functional
HCT-116 [6] = assay: Antiproliferative activity against human HCT-116 cells assessed as inhibition of cell growth incubated for 48 hrs by MTT assay; format: functional, cell-based; details: HCT-116, 48 h
MDA-MB-231 [7] = assay: Antiproliferative activity against human MDA-MB-231 cells assessed as inhibition of cell growth incubated for 48 hrs by MTT assay; format: functional, cell-based; details: MDA-MB-231, 48 h
HeLa [8] = assay: Antiproliferative activity against human HeLa cells assessed as inhibition of cell growth incubated for 48 hrs by MTT assay; format: functional, cell-based
A549 [9] = assay: Antiproliferative activity against human A549 cells assessed as inhibition of cell growth incubated for 48 hrs by MTT assay; format: functional, cell-based; details: A549, 48 h
A-375 [10] = assay: Antiproliferative activity against human A-375 cells assessed as inhibition of cell growth incubated for 48 hrs by MTT assay; format: functional, cell-based; details: A-375, 48 h

**Q.** For `NC(=O)c1ccccc1NCc1ccc(NC(=O)Nc2ccccc2)cc1`, which inhibition at 20 µM (MDA-MB-231 [1]) is on record?
**A.** 45.2%

**Q.** And the inhibition at 20 µM (HCT-116 [2])?
**A.** 41.2%

**Q.** And the inhibition at 20 µM (HeLa [3])?
**A.** 32.3%

**Q.** And the inhibition at 20 µM (A549 [4])?
**A.** 29%

**Q.** And the inhibition at 20 µM (A-375 [5])?
**A.** 35%

**Q.** How did the inhibition at 20 µM (MDA-MB-231 [1]) turn out when `Cc1cccc(NC(=O)Nc2ccccc2CNc2ccccc2C(N)=O)c1` was run?
**A.** 17.9%

**Q.** What about the inhibition at 20 µM (HCT-116 [2]) of the same molecule?
**A.** 71.9%

**Q.** And the inhibition at 20 µM (HeLa [3])?
**A.** < 1%

**Q.** And the inhibition at 20 µM (A549 [4])?
**A.** 1.8%

**Q.** And the inhibition at 20 µM (A-375 [5])?
**A.** 34%

**Q.** `COc1cccc(NC(=O)Nc2ccc(CNc3ccccc3C(N)=O)cc2)c1` was tested. Which inhibition at 20 µM (MDA-MB-231 [1]) did it give?
**A.** 50%

**Q.** And the inhibition at 20 µM (HCT-116 [2])?
**A.** 82.3%

**Q.** And the inhibition at 20 µM (HeLa [3])?
**A.** 66.8%

**Q.** What about the inhibition at 20 µM (A549 [4]) of the same molecule?
**A.** 59.3%

**Q.** And the inhibition at 20 µM (A-375 [5])?
**A.** 50.8%

**Q.** And the IC50 (HCT-116 [6])?
**A.** 14.2 µM

**Q.** What about the IC50 (MDA-MB-231 [7]) of the same molecule?
**A.** 21.6 µM

**Q.** And the IC50 (HeLa [8])?
**A.** 21.9 µM

**Q.** And the IC50 (A549 [9])?
**A.** 41.5 µM

**Q.** And the IC50 (A-375 [10])?
**A.** 29.8 µM

**Q.** For `Cc1cccc(NC(=O)Nc2ccc(COc3ccccc3C(N)=O)cc2)c1`, which inhibition at 20 µM (MDA-MB-231 [1]) is on record?
**A.** 42.2%

**Q.** What about the inhibition at 20 µM (HCT-116 [2]) of the same molecule?
**A.** 24%

**Q.** What about the inhibition at 20 µM (HeLa [3]) of the same molecule?
**A.** 37.5%

**Q.** What about the inhibition at 20 µM (A549 [4]) of the same molecule?
**A.** 10%

**Q.** And the inhibition at 20 µM (A-375 [5])?
**A.** 23.7%

**Q.** `NC(=O)c1ccccc1OCc1ccc(NC(=O)Nc2cccc(F)c2)cc1` was tested. Which inhibition at 20 µM (MDA-MB-231 [1]) did it give?
**A.** 36.2%

**Q.** What about the inhibition at 20 µM (HCT-116 [2]) of the same molecule?
**A.** 43%

**Q.** What about the inhibition at 20 µM (HeLa [3]) of the same molecule?
**A.** 33.7%

**Q.** What about the inhibition at 20 µM (A549 [4]) of the same molecule?
**A.** 28.6%

**Q.** What about the inhibition at 20 µM (A-375 [5]) of the same molecule?
**A.** 36.9%

**Q.** For `NC(=O)c1ccccc1NCc1ccccc1NC(=O)Nc1cccc(Br)c1`, which inhibition at 20 µM (MDA-MB-231 [1]) is on record?
**A.** 19.2%

**Q.** And the inhibition at 20 µM (HCT-116 [2])?
**A.** 29.1%

**Q.** And the inhibition at 20 µM (HeLa [3])?
**A.** 15.5%

**Q.** And the inhibition at 20 µM (A549 [4])?
**A.** 36.1%

**Q.** And the inhibition at 20 µM (A-375 [5])?
**A.** 38.2%

**Q.** With `NC(=O)c1ccccc1OCc1ccccc1NC(=O)Nc1cccc(Br)c1` as the molecule, how does the inhibition at 20 µM (MDA-MB-231 [1]) read?
**A.** 27.3%

**Q.** And the inhibition at 20 µM (HCT-116 [2])?
**A.** 40.4%

**Q.** What about the inhibition at 20 µM (HeLa [3]) of the same molecule?
**A.** 42.5%

**Q.** And the inhibition at 20 µM (A549 [4])?
**A.** 10.1%

**Q.** What about the inhibition at 20 µM (A-375 [5]) of the same molecule?
**A.** 31.7%

**Q.** Which results are given for `NC(=O)c1ccccc1NCc1ccc(NC(=O)Nc2cccc(Br)c2)cc1`?
**A.** inhibition at 20 µM (MDA-MB-231 [1]): 67.2%; inhibition at 20 µM (HCT-116 [2]): 72.5%; inhibition at 20 µM (HeLa [3]): 71.5%; inhibition at 20 µM (A549 [4]): 82.2%; inhibition at 20 µM (A-375 [5]): 67.2%; IC50 (HCT-116 [6]): 10.4 µM; IC50 (MDA-MB-231 [7]): 14.4 µM; IC50 (HeLa [8]): 14 µM; IC50 (A549 [9]): 11.8 µM; IC50 (A-375 [10]): 19.7 µM

**Q.** How did the inhibition at 20 µM (MDA-MB-231 [1]) turn out when `Cc1cccc(NC(=O)Nc2ccccc2COc2ccccc2C(N)=O)c1` was run?
**A.** 37.8%

**Q.** What about the inhibition at 20 µM (HCT-116 [2]) of the same molecule?
**A.** 80%

**Q.** And the inhibition at 20 µM (HeLa [3])?
**A.** < 1%

**Q.** And the inhibition at 20 µM (A549 [4])?
**A.** 20.6%

**Q.** What about the inhibition at 20 µM (A-375 [5]) of the same molecule?
**A.** < 1%

**Q.** With `COc1cccc(NC(=O)Nc2ccc(COc3ccccc3C(N)=O)cc2)c1` as the molecule, how does the inhibition at 20 µM (MDA-MB-231 [1]) read?
**A.** 53.4%

**Q.** What about the inhibition at 20 µM (HCT-116 [2]) of the same molecule?
**A.** 56.7%

**Q.** What about the inhibition at 20 µM (HeLa [3]) of the same molecule?
**A.** 21%

**Q.** And the inhibition at 20 µM (A549 [4])?
**A.** 33.1%

**Q.** What about the inhibition at 20 µM (A-375 [5]) of the same molecule?
**A.** 33.1%

**Q.** With `NC(=O)c1ccccc1NCc1ccccc1NC(=O)Nc1cccc(F)c1` as the molecule, how does the inhibition at 20 µM (MDA-MB-231 [1]) read?
**A.** 52.1%

**Q.** And the inhibition at 20 µM (HCT-116 [2])?
**A.** 40.5%

**Q.** What about the inhibition at 20 µM (HeLa [3]) of the same molecule?
**A.** 44.6%

**Q.** And the inhibition at 20 µM (A549 [4])?
**A.** < 1%

**Q.** And the inhibition at 20 µM (A-375 [5])?
**A.** 28.3%

**Q.** How did the inhibition at 20 µM (MDA-MB-231 [1]) turn out when `NC(=O)c1ccccc1NCc1cccc(NC(=O)Nc2ccccc2)c1` was run?
**A.** 51.2%

**Q.** What about the inhibition at 20 µM (HCT-116 [2]) of the same molecule?
**A.** 64.6%

**Q.** And the inhibition at 20 µM (HeLa [3])?
**A.** 49.8%

**Q.** What about the inhibition at 20 µM (A549 [4]) of the same molecule?
**A.** 66.2%

**Q.** And the inhibition at 20 µM (A-375 [5])?
**A.** 36.9%

**Q.** `COc1cccc(NC(=O)Nc2cccc(COc3ccccc3C(N)=O)c2)c1` was tested. Which inhibition at 20 µM (MDA-MB-231 [1]) did it give?
**A.** 38.8%

**Q.** What about the inhibition at 20 µM (HCT-116 [2]) of the same molecule?
**A.** 36.8%

**Q.** And the inhibition at 20 µM (HeLa [3])?
**A.** 33.1%

**Q.** What about the inhibition at 20 µM (A549 [4]) of the same molecule?
**A.** 15.8%

**Q.** What about the inhibition at 20 µM (A-375 [5]) of the same molecule?
**A.** 29.9%

**Q.** Which inhibition at 20 µM (MDA-MB-231 [1]) does the source give for `NC(=O)c1ccccc1OCc1cccc(NC(=O)Nc2ccccc2)c1` here?
**A.** 15%

**Q.** What about the inhibition at 20 µM (HCT-116 [2]) of the same molecule?
**A.** 71.1%

**Q.** And the inhibition at 20 µM (HeLa [3])?
**A.** 41%

**Q.** And the inhibition at 20 µM (A549 [4])?
**A.** 54.7%

**Q.** What about the inhibition at 20 µM (A-375 [5]) of the same molecule?
**A.** 40.6%

**Q.** For `Cc1cccc(NC(=O)Nc2ccc(CNc3ccccc3C(N)=O)cc2)c1`, which inhibition at 20 µM (MDA-MB-231 [1]) is on record?
**A.** 50.5%

**Q.** And the inhibition at 20 µM (HCT-116 [2])?
**A.** 33.7%

**Q.** What about the inhibition at 20 µM (HeLa [3]) of the same molecule?
**A.** 39.6%

**Q.** And the inhibition at 20 µM (A549 [4])?
**A.** 2.12%

**Q.** What about the inhibition at 20 µM (A-375 [5]) of the same molecule?
**A.** 14.3%

**Q.** With `NC(=O)c1ccccc1OCc1ccc(NC(=O)Nc2cccc(Br)c2)cc1` as the molecule, how does the inhibition at 20 µM (MDA-MB-231 [1]) read?
**A.** 46.1%

**Q.** What about the inhibition at 20 µM (HCT-116 [2]) of the same molecule?
**A.** 62.2%

**Q.** And the inhibition at 20 µM (HeLa [3])?
**A.** 60.4%

**Q.** And the inhibition at 20 µM (A549 [4])?
**A.** 42.4%

**Q.** What about the inhibition at 20 µM (A-375 [5]) of the same molecule?
**A.** 54%

**Q.** And the IC50 (HCT-116 [6])?
**A.** 17.6 µM

**Q.** What about the IC50 (MDA-MB-231 [7]) of the same molecule?
**A.** 27.4 µM

**Q.** What about the IC50 (HeLa [8]) of the same molecule?
**A.** 17.6 µM

**Q.** What about the IC50 (A549 [9]) of the same molecule?
**A.** 26.8 µM

**Q.** And the IC50 (A-375 [10])?
**A.** 13.4 µM

**Q.** `NC(=O)c1ccccc1OCc1ccccc1NC(=O)Nc1ccccc1` was tested. Which inhibition at 20 µM (MDA-MB-231 [1]) did it give?
**A.** 30.3%

**Q.** And the inhibition at 20 µM (HCT-116 [2])?
**A.** 13.3%

**Q.** What about the inhibition at 20 µM (HeLa [3]) of the same molecule?
**A.** 36%

**Q.** What about the inhibition at 20 µM (A549 [4]) of the same molecule?
**A.** 33%

**Q.** And the inhibition at 20 µM (A-375 [5])?
**A.** 21.7%
